Data reported in patent publication US4849424A, “Pyrimidine derivatives” (Nissin Shokuhin Kabushiki Kaisha, priority 1986, dated 1989).

Assays:
gastric lesions = test: HCl-ethanol-induced gastric lesions in rats (cytoprotective effect); format: in vivo, Male Sprague-Dawley rats; conditions: Rattus norvegicus, po; for ED50: 30 minutes before HCl-ethanol; for inhibition in vivo at 10 mg/kg: 10 mg/kg p.o. in 1% CMC, 30 minutes before 150 mM HCl-60% ethanol, 3 rats per group, lesions measured 1 hour later, read-out: Inhibition (inhibitory rate of ulcer length vs control)
Protocol: Male Sprague-Dawley rats (body weight: 220-240 g, 7 weeks) were deprived of food but allowed free access to water for 24 hours prior to the experiments. Each control and experimental group consisted of 3 rats. One hundred and fifty mM HCl-60% ethanol (v/v) was given p.o. in a volume of 1 ml/rat. The animals were sacrificed 1 hour later, and the stomach was removed and inflated by injecting 10 ml of 2% formalin to fix the inner and outer layers of the gastric walls. Subsequently, the stomach was incised along the greater curvature and washed gently with ice-cold saline.
Gastric lesions were identified in the grandular portion. The length of lesions was measured in millimeters (mm) under a dissecting microscope with a square grid (×10), and lesion severity was expressed as the total length of lesions per stomach.
Test compound (I) (10 mg/kg), suspended in 1% carboxymethyl cellulose (CMC), or 1% carboxymethyl cellulose for the control was orally administered 30 minutes before HCl-ethanol administration. The ulcer length of the treated group and the control group were compared and the inhibitory rates were calculated.

ulcer = test: Restraint-immersion stress ulcer in rats (anti-stress ulcer activity); format: in vivo, Male Sprague-Dawley rats; conditions: 32 mg/kg p.o. in 0.1% MC, 5 minutes before restraint-immersion for 7 hours at 22° C.
Protocol: Male Sprague-Dawley rats (body weight: 230-280 g) were placed under restraint in a stress cage after fasting for 15 hours, and immersed vertically in the water bath kept at 22° C. to the level of the xiphoid of the animal. After restraint-immersion for 7 hours the animals were killed, and the stomach from each animal was fixed with formalin.
Each stomach was opened by cutting along the greater curvature, and ulcer area (mm^2) was measured with a stereoscopic microscope. Ulcer indices of the treated group and the control group were compared, and inhibitory rates were calculated. The tested compound, either 4,6-bis(1-pyrazolyl) pyrimidine (32 mg/kg) suspended in 0.1% methylcellulose (MC) or 0.1% methylcellulose (MC) alone, was orally administered 5 minutes before the restraint-immersion.

[1] = Oral acute toxicity (LD50) in rats; conditions: rat, in vivo, 0.3% CMC-Na suspension, 72 hours observation, 10 rats per group, Probit method
Protocol: A 0.3% CMC-Na suspension of a test compound was orally administered to groups of Slc:Wistar/KY rats (male: 90-120 g), each group consisting of 10 rats. […] LD50 values were calculated by the Probit method to be as follows: […]

Row | Structure (SMILES) | ED50 (gastric lesions) | inhibition in vivo at 10 mg/kg (gastric lesions) | Inhibition (inhibitory rate of ulcer index vs control) (ulcer) | LD50 at 72 h [1]
1 | c1cnn(-c2cc(-n3cccn3)ncn2)c1 [Example 1, 4,6-Bis(1-pyrazolyl)pyrimidine] | 0.72 mg/kg | 95.6% | 73.6% | > 3000 mg/kg
2 | c1cn(-c2ccnc(-n3ccnc3)n2)cn1 [Example 4, 2,4-Bis(1-imidazolyl)pyrimidine] |  | 78.2% |  | 
3 | COc1cc(C)nc(-n2cccn2)n1 [Example 6, 4-Methoxy-6-methyl-2-(1-pyrazolyl)pyrimidine] |  | 87.2% |  | 
4 | COc1cc(C)nc(-n2ccnc2)n1 [Example 7, 2-(1-Imidazolyl)-4-methoxy-6-methylpyrimidine] |  | 82.6% |  | 
5 | COc1nc(C)cc(-n2cncn2)n1 [Example 9, 2-Methoxy-6-methyl-4-(1,2,4-triazol-1-yl)pyrimidine] |  | 75.7% |  | 
6 | CCOc1cc(C)nc(-n2ccnc2)n1 [Example 10, 4-Ethoxy-2-(1-imidazolyl)-6-methylpyrimidine] |  | 80.7% |  | 
7 | CCOc1cc(C)nc(-n2cccn2)n1 [Example 11, 4-Ethoxy-6-methyl-2-(1-pyrazolyl)pyrimidine] |  | 78.3% |  | 
8 | COc1cc(-n2cccn2)ncn1 [Example 15, 6-Methoxy-4-(1-pyrazolyl)pyrimidine] |  | 95.6% |  | 
9 | COc1cc(-n2ccnc2)ncn1 [Example 16, 4-(1-Imidazolyl)-6-methoxypyrimidine] | 5.6 mg/kg | 91.3% |  | 400 mg/kg
10 | CC(C)Oc1cc(-n2cccn2)ncn1 [Example 17, 6-Isopropoxy-4-(1-pyrazolyl)pyrimidine] |  | 79.8% |  | 
11 | c1cnn(-c2cc(N3CCCCC3)ncn2)c1 [Example 19, 6-Piperidino-4-(1-pyrazolyl)pyrimidine] |  | 79.2% |  | 
